Results as given in patent US8791143B2, “Anthranilic diamide derivatives having cyclic side-chains” (priority 2010, dated 2014).
Read-outs that look alike come from different tables or passages of the source.

Experiments:
[1] = system: caterpillars of the armyworm (Spodoptera frugiperda); assay: Spodoptera frugiperda test (SPODFR spray treatment); type: in vivo; conditions: Spodoptera frugiperda, 168 h, read-out: activity in % (caterpillars killed)
[2] = system: larvae of the mustard beetle (Phaedon cochleariae); assay: Phaedon test (PHAECO spray treatment); conditions: Phaedon cochleariae, 168 h, read-out: activity in % (beetle larvae killed)
[3] = log P by HPLC on reversed-phase columns (EEC Directive 79/831 Annex V.A8); type: physicochemical
[4] = application rate 100 g/ha, after 7 days
[5] = reversed-phase C18 HPLC column, pH 2.7, HPLC reversed-phase C18, acidic range pH 2.7 (HCOOH), only or first value of the cell, read-out: log P

For `Cc1cc(I)cc(C(=O)NCc2ccc(OC(F)F)cc2)c1NC(=O)c1cc(Cn2nnc(C(F)(F)C(F)(F)F)n2)nn1-c1ncccc1Cl` [Example 149], the pest or weed control at 100 g/ha [1, 4] was 100%, the pest or weed control at 100 g/ha [2] was 100% and the chromatographic logP [3, 5] was 4.35.

With `Cc1cc(Cl)cc(C(=O)NCc2ccccc2C(F)(F)F)c1NC(=O)c1cc(Cn2nnc(C(F)(F)F)n2)nn1-c1ncccc1Cl` [Example 118] the pest or weed control at 100 g/ha [1, 4] was 100%, the pest or weed control at 100 g/ha [2] was 100% and the chromatographic logP [3, 5] was 4.21.

`Cc1cc(F)cc(C(=O)NCc2ccccc2OC(F)(F)F)c1NC(=O)c1cc(Cn2nnc(C(F)(F)F)n2)nn1-c1ncccc1Cl` [Example 154] gave a pest or weed control at 100 g/ha [1, 4] of 100%, a pest or weed control at 100 g/ha [2] of 100% and a chromatographic logP [3, 5] of 3.92.

Work on `Cc1cc(Cl)cc(C(=O)NC(C)c2ccc(Cl)cc2)c1NC(=O)c1cc(Cn2nnc(C(F)(F)F)n2)nn1-c1ncccc1Cl` (stereo not drawn) [Example 111] yielded a pest or weed control at 100 g/ha [1] of 100%, a pest or weed control at 100 g/ha [2] of 100% and a chromatographic logP ([3]; pH 2.7, log P) of 4.3.

Compound `Cc1cc(Cl)cc(C(=O)NCc2ccccc2OC(F)(F)F)c1NC(=O)c1cc(Cn2nnc(C(F)(F)F)n2)nn1-c1ncccc1Cl` [Example 103] has a pest or weed control at 100 g/ha [1, 4] of 100%, a pest or weed control at 100 g/ha [2] of 100% and a chromatographic logP [3, 5] of 4.34.

Work on `Cc1cc(F)cc(C(=O)NCc2ccc(OC(F)F)cc2)c1NC(=O)c1cc(Cn2nnc(C(F)(F)F)n2)nn1-c1ncccc1Cl` [Example 170] yielded a pest or weed control at 100 g/ha [1, 4] of 100%, a pest or weed control at 100 g/ha [2] of 100% and a chromatographic logP [3, 5] of 3.55.

For `Cc1cc(Cl)cc(C(=O)NC(C)c2ccc(Cl)c(Cl)c2)c1NC(=O)c1cc(Cn2nnc(C(F)(F)F)n2)nn1-c1ncccc1Cl` (stereo not drawn) [Example 142], the pest or weed control at 100 g/ha [1, 4] was 100%, the pest or weed control at 100 g/ha [2] was 100% and the chromatographic logP [3, 5] was 4.58.

For `Cc1cc(Cl)cc(C(=O)NC(C)c2ccc(Cl)cc2Cl)c1NC(=O)c1cc(Cn2nnc(C(F)(F)F)n2)nn1-c1ncccc1Cl` (stereo not drawn) [Example 141], the pest or weed control at 100 g/ha [1, 4] was 100%, the pest or weed control at 100 g/ha [2] was 100% and the chromatographic logP [3, 5] was 4.67.

Work on `Cc1cc(C#N)cc(C(=O)NCc2ccccc2OC(F)F)c1NC(=O)c1cc(Cn2nnc(C(F)(F)F)n2)nn1-c1ccccc1Cl` [Example 190] yielded a pest or weed control at 100 g/ha [1, 4] of 100%, a pest or weed control at 100 g/ha [2] of 100% and a chromatographic logP [3, 5] of 3.88.

Compound `Cc1cc(Cl)cc(C(=O)NCc2cccc(Cl)c2Cl)c1NC(=O)c1cc(Cn2nnc(C(F)(F)F)n2)nn1-c1ncccc1Cl` [Example 105] has a pest or weed control at 100 g/ha [1] of 100%, a pest or weed control at 100 g/ha [2] of 100% and a chromatographic logP ([3]; pH 2.7, log P) of 4.37.

`Cc1cc(C#N)cc(C(=O)NC2CSC2)c1NC(=O)c1cc(Cn2nnc(C(F)(F)C(F)(F)F)n2)nn1-c1ncccc1Cl` [Example 11] showed a pest or weed control at 100 g/ha [1] of 100%, a pest or weed control at 100 g/ha [2] of 100% and a chromatographic logP ([3]; pH 2.7, log P) of 3.43.

With `Cc1cc(Cl)cc(C(=O)NC(C)c2ccccc2)c1NC(=O)c1cc(Cn2nnc(C(F)(F)F)n2)nn1-c1ncccc1Cl` (stereo not drawn) [Example 84] the pest or weed control at 100 g/ha [1] was 100%, the pest or weed control at 100 g/ha [2] was 100% and the chromatographic logP ([3]; pH 2.7, log P) was 3.92.

`Cc1cc(Cl)cc(C(=O)NCc2ccccc2Cl)c1NC(=O)c1cc(Cn2nnc(C(F)(F)F)n2)nn1-c1ncccc1Cl` [Example 82] gave a pest or weed control at 100 g/ha [1] of 100%, a pest or weed control at 100 g/ha [2] of 100% and a chromatographic logP ([3]; pH 2.7, log P) of 4.06.

In the case of `Cc1cc(Cl)cc(C(=O)NCc2cccc(OC(F)(F)F)c2)c1NC(=O)c1cc(Cn2nnc(C(F)F)n2)nn1-c1ncccc1Cl` [Example 160], the pest or weed control at 100 g/ha [1, 4] is reported as 100%, the pest or weed control at 100 g/ha [2] is reported as 100% and the chromatographic logP [3, 5] is reported as 3.79.

`Cc1ccccc1C(C)NC(=O)c1cc(Cl)cc(C)c1NC(=O)c1cc(Cn2nnc(C(F)(F)F)n2)nn1-c1ncccc1Cl` (stereo not drawn) [Example 112] gave a pest or weed control at 100 g/ha [1] of 100%, a pest or weed control at 100 g/ha [2] of 100% and a chromatographic logP ([3]; pH 2.7, log P) of 4.2.

In the case of `Cc1cc(Cl)cc(C(=O)N[C@@H](C)c2ccc([N+](=O)[O-])cc2)c1NC(=O)c1cc(Cn2nnc(C(F)(F)F)n2)nn1-c1ncccc1Cl` [Example 129], the pest or weed control at 100 g/ha [1, 4] is reported as 100%, the pest or weed control at 100 g/ha [2] is reported as 100% and the chromatographic logP [3, 5] is reported as 3.86.

`Cc1cc(Cl)cc(C(=O)NC(C)c2ccc(C(F)(F)F)cn2)c1NC(=O)c1cc(Cn2nnc(C(F)(F)F)n2)nn1-c1ncccc1Cl` (stereo not drawn) [Example 234] gave a pest or weed control at 100 g/ha [1, 4] of 100%, a pest or weed control at 100 g/ha [2] of 100% and a chromatographic logP [3, 5] of 4.04.

In the case of `Cc1c(F)ccc(C(=O)NCc2cccc(Cl)c2)c1NC(=O)c1cc(Cn2nnc(C(F)(F)F)n2)nn1-c1ncccc1Cl` [Example 183], the pest or weed control at 100 g/ha [1] is reported as 100%, the pest or weed control at 100 g/ha [2] is reported as 100% and the chromatographic logP ([3]; pH 2.7, log P) is reported as 3.82.

`Cc1cc(C#N)cc(C(=O)NCc2cccc(OC(F)(F)F)c2)c1NC(=O)c1cc(Cn2nnc(C(F)(F)F)n2)nn1-c1ncccc1Cl` [Example 166] showed a pest or weed control at 100 g/ha [1, 4] of 100%, a pest or weed control at 100 g/ha [2] of 100% and a chromatographic logP [3, 5] of 3.91.

Work on `COC(=O)c1ccc(CNC(=O)c2cc(Cl)cc(C)c2NC(=O)c2cc(Cn3nnc(C(F)(F)F)n3)nn2-c2ncccc2Cl)cc1` [Example 127] yielded a pest or weed control at 100 g/ha [1, 4] of 100%, a pest or weed control at 100 g/ha [2] of 100% and a chromatographic logP [3, 5] of 3.68.
